SMILES,pKa (basic group),pKa (acidic group)
CN(C)c1cccc2cccc(N(C)C)c12,12.1,
Cc1[nH]c2ccccc2c1C(=O)O,,5.89
Cc1ccc(C(=O)/C=C/C(=O)O)cc1,,3.44
CN1CCCC(C(=O)[O-])C1 (stereo not drawn),9.7,
NC(=O)Cc1ccc(C(=O)O)cc1,,4.06
O=P([O-])(O)C([NH2+]Cc1cccnc1)c1ccccc1O (stereo not drawn),3.14,5.15
C[NH+](C)CCN,6.63,
[O-]c1c(Cl)cc(Cl)c(Cl)c1CN1CCCCC1,10.3,
Oc1ccccc1/C=N/c1ncc2nc[nH]c2n1,3.38,9.19
Cn1c(=O)c2[nH]c([N+](=O)[O-])nc2n(C)c1=O,,3.58
Cc1nc2cccc(N)c2n1C,6.66,
O=S1(=O)Cc2cc(Br)ccc2N=CN1,,9.3
CC(C)(C)C1=CC(=C2C=CC=CC=C2)C=C(C(C)(C)C)C1=O,4.48,
CN1C[C@@H](C(=O)[O-])C[C@H]2c3cccc4[nH]cc(c34)C[C@@H]21,8.47,
COc1cc([N+](=O)[O-])ccc1O,,6.83
CC(C)CCC[NH+](C)CCCNC(=O)/C=N/O,,8.72

# From the pKa sets of Baltruschat and Czodrowski (2020)
